Measured values from patent US4070458A, “Novel physiologically active peptide and its n-acyl derivatives and processes for producing thereof” (priority 1974, dated 1978).
≈ marks a conversion by molar mass, not a printed value. Where two headings read alike, the source gives them in different places.

How the values were obtained:
[1] = tested on: enzyme which decomposes R-Val-Val-X-Ala-X to Val-X-Ala-X; test: Effect of various inhibitors and metal ions on the enzyme activity; type: biochemical, Bacillus sphaericus ATCC 14577
[2] = tested on: Cathepsin D; test: Anti-cathepsin D activity (method of The Journal of Antibiotics 25 689 (1972)); type: biochemical
Experimental: (§1) As an example of one of the physiological activities of the peptide and N-acyl derivatives thereof obtained according to the present invention, anti-pepsin and anti-cathepsin D activities and also acute toxicity are given in Table 8. The activities (ID50) were assayed according to the method described above and The Journal of Antibiotics 25 689 (1972). The antiprotease activities of the peptide and N-acyl derivatives thereof are extremely high.

[3] = Acute toxicity in mice; type: in vivo; settings: mouse, in vivo, ip, abdominal injection
Experimental: as §1
(§2) Note: Acute toxicity was examined by administering the compounds to the
(§3) mice by abdominal injection
(§4) *This value was obtained by intravenous injection.

[4] = target: T1, pepsin (SIGMA, 2XCRY) (Sus scrofa, UniProt P00791); test: Assay of pepsin-inhibitory activity (casein digestion); type: biochemical
T1 construct: purchased SIGMA 2XCRY
T1 sequence (P00791 60-385): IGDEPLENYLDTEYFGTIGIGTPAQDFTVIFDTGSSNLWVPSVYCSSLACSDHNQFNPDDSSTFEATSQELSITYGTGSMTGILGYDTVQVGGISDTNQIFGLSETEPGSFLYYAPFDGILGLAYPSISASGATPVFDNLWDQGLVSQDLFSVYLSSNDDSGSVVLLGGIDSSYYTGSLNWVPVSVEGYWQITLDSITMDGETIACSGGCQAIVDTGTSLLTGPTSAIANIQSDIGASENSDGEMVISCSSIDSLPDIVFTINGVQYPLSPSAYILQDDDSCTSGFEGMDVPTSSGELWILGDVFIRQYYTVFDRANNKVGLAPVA
Experimental: Assay of pepsin-inhibitory activity in this invention was performed according to the following method: A mixture of 1 ml of 0.6 %, by weight, highly purified casein dissolved in 0.08M lactate buffer solution, pH 2.2, 0.7 ml of 0.02M KCl-HCl buffer solution, pH 2.0, and 0.2 ml of solution containing the compound sample was incubated at 37° C for three minutes. To this mixture 4 mcg of pepsin (SIGMA, 2XCRY) dissolved in 0.1 ml of 0.2M KCl-HCl buffer solution were added. The mixture was incubated at 37° C for 30 minutes. The reaction was stopped by the addition of 2.0 ml of 1.7M perchloric acid. After one hour at room temperature, the optical density (a) of the supernatant liquid was read at 280 mμ. An inhibition rate was obtained according to:
where (b) is the optical density at 280 mμ of the tube without the sample solution.
The ID50 is defined as the amount necessary for 50 % of the inhibition rate.
as §1

[5] = tested on: mice; test: Acute toxicity in mice; type: in vivo
Experimental: as §1, §2, §3, §4

[6] = Solubility in water; type: physicochemical
Text: The solubilities in water of the N-acyl derivatives according to the present invention are shown in Table 10 compared with the known N-acyl peptides having physiological activity.

[7] = Solubility of the hydrolysis product in organic solvents; type: physicochemical
[8] = tested on: Stomach ulcers in rats; test: Stress stomach ulcers in rats (method of Takagi et al.); type: in vivo
Experimental: Stomach ulcers in rats made by the method described in Takagi et al. in the Japanese Journal of Pharmacology, 18, 9-19, […], that is, placing male rats in a cage at 23° C. for 22 hours, are protected or therapetuically treated by the compounds. When 50 mg/kg of pepstatin and the compounds according to the invention were orally given 30 minutes before the stress, and the rats were sacrificed 48 hours afte the stress, the curative ratio of the ulcers was 60 - 75%. When the dose was 10 mg/kg, the inhibition percentage of the ulcers was 50 - 60%.

[9] = Concentration 2 mM, Control (No Addition) 100
[10] = Concentration 10 mM, Control (No Addition) 100
[11] = casein, pH 2, 37° C, 30 minutes, read-out: ID50 Pepsin (converted)

For `O[C@H](CS)[C@H](O)CS` (racemic) [Dithiothreitol], the “Inhibition of the enzyme” value ([1]; 2mM) was “Inhibition” and the Relative activity [1, 9] was 0.

For `CC(C)C[C@H](NC(=O)[C@H](C)NC(=O)C[C@H](O)[C@H](CC(C)C)NC(=O)[C@@H](NC(=O)c1ccccc1)C(C)C)[C@@H](O)CC(=O)O` [Benzoyl-Val-X-Ala-X, N-benzoyl-Val-X-Ala-X], the “ID50 Cathepsin D” value [2] was 0.05 µg/mL (≈ 0.0824 µM) and the LD50 [3] was 1350 mg/kg.

With `[Ca+2].[Cl-].[Cl-]` [Calcium Chloride] the Relative activity [1] was 110 and the increase in activity [1] was 29%.

Molecule `[Cl][Co][Cl]` [Cobalt Chloride] has a Relative activity [1, 9] of 134 and a Relative activity [1, 10] of 166.

`O=C(O)CN(CCN(CC(=O)O)CC(=O)O)CC(=O)O` [Ethylenediaminetetraacetic Acid] gave a Relative activity [1, 9] of 30.

With `[Cl][Hg][Cl]` [HgCl2] the “Inhibition of the enzyme” value ([1]; 2mM) was “Inhibition”.

For `CC(C)C[C@H](NC(=O)[C@H](C)NC(=O)C[C@H](O)[C@H](CC(C)C)NC(=O)[C@@H](NC(=O)C(C)C)C(C)C)[C@@H](O)CC(=O)O` [Isobutyryl-Val-X-Ala-X, N-isobutyryl-Val-X-Ala-X], the IC50 [4, 11] was 36.7 nM.

In the case of `CC(C)CC(=O)N[C@H](C(=O)N[C@@H](CC(C)C)[C@@H](O)CC(=O)N[C@@H](C)C(=O)N[C@@H](CC(C)C)[C@@H](O)CC(=O)O)C(C)C` [Isovaleryl-Val-X-Ala-X, N-isovaleryl-Val-X-Ala-X], the IC50 [4, 11] is reported as 17 nM, the “Acute toxicity LD0” value ([5]; abdominal injection) is reported as ≥ 3000 mg/kg and the Solubility in water ([6]; 20° C) is reported as 5,000 mcg/ml.

With `CC(C)C[C@H](NC(=O)[C@H](C)NC(=O)C[C@H](O)[C@H](CC(C)C)NC(=O)[C@@H](NC(=O)C(C)O)C(C)C)[C@@H](O)CC(=O)O` (some centres unmarked) [Lactoyl-Val-X-Ala-X, lactoyl-Val-X-Ala-X] the IC50 [4, 11] was 34.8 nM, the “Acute toxicity LD0” value ([5]; abdominal injection) was ≥ 6000 mg/kg and the “Acute toxicity LD0” value ([5]; intravenous injection) was ≥ 550 mg/kg. The “Water solubility compared with other derivatives” value [6] was “much more water soluble” and the Solubility in water ([6]; 20° C) was ≥ 50,000 mcg/ml.

With `CC(=O)[O-].CC(=O)[O-].[Pb+2]` [Lead Acetate] the Relative activity [1] was 43.

Molecule `CC(=O)[O-].CC(=O)[O-].[Hg+2]` [Mercuric Acetate] has a Relative activity [1] of 0.

With `O=C(O)CI` [Monoiodoacetic Acid] the Relative activity [1] was 84.

In the case of `O=C1CCC(=O)N1Br` [N-Bromosuccinimide], the “Inhibition of the enzyme” value ([1]; 2mM) is reported as “Inhibition” and the Relative activity [1, 9] is reported as 0.

`[N-]=[N+]=[N-].[Na+]` [NaN3] showed a Relative activity [1] of 100.

Molecule `CCCCCCCCCCCCCCCC(=O)N[C@H](C(=O)N[C@@H](CC(C)C)[C@@H](O)CC(=O)N[C@@H](C)C(=O)N[C@@H](CC(C)C)[C@@H](O)CC(=O)O)C(C)C` [Palmitoyl-Val-X-Ala-X, N-palmitoyl-Val-X-Ala-X] has an IC50 [4, 11] of 607 nM.

Work on `CC(=O)C(CC(C)C)NC(=O)[C@H](C)NC(=O)CC(O)C(CC(C)C)NC(=O)[C@@H](NC(=O)[C@@H](NC(=O)CC(C)C)C(C)C)C(C)C` (stereo partly drawn) [Pepstanone A, isovaleryl-Val-Val-X-Ala-X'] yielded a Solubility in water ([6]; 20° C) of 50 µg/mL (≈ 78.1 µM).

Work on `CC(C)CC(=O)N[C@H](C(=O)N[C@H](C(=O)N[C@@H](CC(C)C)[C@@H](O)CC(=O)N[C@@H](C)C(=O)N[C@@H](CC(C)C)[C@@H](O)CC(=O)O)C(C)C)C(C)C` [Pepstatin A] yielded a Solubility in water [6] of 200 µg/mL (≈ 292 µM).

Molecule `CCCCCC(=O)N[C@H](C(=O)N[C@H](C(=O)N[C@@H](CC(C)C)[C@@H](O)CC(=O)N[C@@H](C)C(=O)N[C@@H](CC(C)C)[C@@H](O)CC(=O)O)C(C)C)C(C)C` [Pepstatin B, n-caproyl-L-valyl-L-valyl-4-amino-3-hydroxy-6-methylheptanoyl-L-alanyl-4-a mino-3-hydroxy-6-methylheptanoic acid] has a Solubility in water ([6]; 20° C) of 100 µg/mL (≈ 143 µM).

In the case of `CC(C)C[C@H](NC(=O)[C@H](C)NC(=O)C[C@H](O)[C@H](CC(C)C)NC(=O)[C@@H](NC(=O)COc1ccccc1)C(C)C)[C@@H](O)CC(=O)O` [Phenoxyacetyl-Val-X-Ala-X, N-phenoxyacetyl-Val-X-Ala-X], the IC50 [4] is reported as 31.4 nM, the LD50 [3] is reported as 1500 mg/kg and the Solubility in water ([6]; 20° C) is reported as 20,000 mcg/ml.

In the case of `CC(C)C[C@H](NC(=O)[C@H](C)NC(=O)C[C@H](O)[C@H](CC(C)C)NC(=O)[C@@H](NC(=O)C(C)Oc1ccccc1)C(C)C)[C@@H](O)CC(=O)O` (some centres unmarked) [Phenoxypropionyl-Val-X-Ala-X, N-2-phenoxypropionyl-Val-X-Ala-X], the IC50 [4, 11] is reported as 30.7 nM, the LD50 [3] is reported as 2100 mg/kg and the Solubility in water ([6]; 20° C) is reported as 15,000 mcg/ml.

For `CC(C)C[C@H](NC(=O)[C@H](C)NC(=O)C[C@H](O)[C@H](CC(C)C)NC(=O)[C@@H](N)C(C)C)[C@@H](O)CC(=O)O` [Val-X-Ala-X, L-valyl-4-amino-3-hydroxy-6-methylheptanoyl-L-alanyl-4-amino-3-hydroxy-6-m ethylheptanoic acid], the IC50 [4] was 19900 nM, the “Acute toxicity LD0” value ([5]; abdominal injection) was ≥ 5000 mg/kg and the “Solubility” value ([7]; ether, ethyl acetate, and butyl acetate) was “insoluble”. For the same molecule, the “Solubility” value ([7]; methanol, ethanol, pyridine, and acetic acid) was “soluble” and the “Solubility” value ([7]; n-propanol, n-butanol, n-amyl alcohol and acetone) was “slightly soluble”.

With `[Cl-].[Cl-].[Zn+2]` [Zinc Chloride] the Relative activity [1, 9] was 66 and the Relative activity [1, 10] was 44.

With `c1cnc2c(c1)ccc1cccnc12` [o-Phenanthroline] the “Inhibition of the enzyme” value ([1]; 2mM) was “Inhibition” and the Relative activity [1, 9] was 0.

In the case of `O=C(O)c1cc[c]([Hg][Cl])cc1` [p-Chloromercuribenzoate], the “Inhibition of the enzyme” value [1] is reported as “Inhibition” and the Relative activity [1] is reported as 2.

With `CC(C)CC(=O)N[C@H](C(=O)N[C@H](C(=O)N[C@@H](CC(C)C)[C@@H](O)CC(=O)N[C@@H](C)C(=O)N[C@@H](CC(C)C)[C@@H](O)CC(=O)O)C(C)C)C(C)C` [pepstatin] the “curative ratio of the ulcers” value ([8]; 50 mg/kg orally 30 minutes before the stress, rats sacrificed 48 hours after the stress) was 60 - 75% and the “cure of ulcers” value ([8]; 50 - 200 mg/kg immediately after the stress and once daily for 4 days) was “rapid cure of ulcers was proven”.

For `OCCS` [β-Mercaptoethanol], the “Inhibition of the enzyme” value ([1]; 2mM) was “Inhibition” and the Relative activity [1, 9] was 0.
